Values after ≈ are worked out from the molar mass of the structure shown.

From ChEMBL document CHEMBL3779863, “Ionic liquid-promoted one-pot synthesis of thiazoleimidazo[2,1-b][1,3,4]thiadiazole hybrids and their antitubercular activity” (Medchemcomm, 2016) come the findings set out here.

The subject of this assay is Mycobacterium tuberculosis. The assay is described as follows: Antimycobacterial activity against extensively drug resistant Mycobacterium tuberculosis H37Rv ATCC 27294 after 28 days by agar dilution method. Format: functional. The settings on record: H37Rv ATCC 27294, 672 h.
On to `Fc1ccc(-c2csc(N/N=C/c3c(-c4ccc(Cl)cc4)nc4sc(C(F)(F)F)nn34)n2)cc1`, for which the lowest concentration to inhibit growth (MIC) was 12 µM (≈ 6.26 µg/mL).

Regarding `COc1ccc(-c2nc3sc(C(F)(F)F)nn3c2/C=N/Nc2nc(-c3ccc(C)cc3)cs2)cc1`, the minimal inhibitory concentration (MIC) is 24.1 µM (≈ 12.4 µg/mL).

Turning to `COc1ccc(-c2csc(N/N=C/c3c(-c4ccc(Cl)cc4)nc4sc(C)nn34)n2)cc1`, it took 52.1 µM (≈ 25 µg/mL) to inhibit growth (MIC).

In turn, `Cc1ccc(-c2nc3sc(C)nn3c2/C=N/Nc2nc(-c3ccc([N+](=O)[O-])cc3)cs2)cc1` registered an MIC of 26.3 µM (≈ 12.5 µg/mL).

In turn, `COc1ccc(-c2csc(N/N=C/c3c(-c4ccc(C)cc4)nc4sc(C)nn34)n2)cc1` registered an MIC of 109 µM (≈ 50 µg/mL).

`COc1ccc(-c2nc3sc(C)nn3c2/C=N/Nc2nc(-c3ccc([N+](=O)[O-])cc3)cs2)cc1`: the minimal inhibitory concentration (MIC) turned out to be 12.7 µM (≈ 6.25 µg/mL).

`Cc1ccc(-c2csc(N/N=C/c3c(-c4ccc(C)cc4)nc4sc(C)nn34)n2)cc1` returned an MIC of 56.3 µM (≈ 25 µg/mL).

`Cc1nn2c(/C=N/Nc3nc(-c4ccc(Cl)cc4)cs3)c(-c3ccc(Cl)cc3)nc2s1` came in with an MIC of 103 µM (≈ 50 µg/mL).

Regarding `COc1ccc(-c2csc(N/N=C/c3c(-c4ccc(OC)cc4)nc4sc(C(F)(F)F)nn34)n2)cc1`, inhibition of growth (MIC) required 94.3 µM (≈ 50 µg/mL).

As for `Cc1ccc(-c2nc3sc(C)nn3c2/C=N/Nc2nc(-c3ccc(F)cc3)cs2)cc1`, it took 13.9 µM (≈ 6.25 µg/mL) to inhibit growth (MIC).

On to `CC[C@@H](CO)NCCN[C@@H](CC)CO` [ETHAMBUTOL], for which the MIC was 15.3 µM (≈ 3.13 µg/mL).

As for `FC(F)(F)c1nn2c(/C=N/Nc3nc(-c4ccc(Cl)cc4)cs3)c(-c3ccc(Cl)cc3)nc2s1`, the minimum inhibitory concentration (MIC) is 92.9 µM (≈ 50.1 µg/mL).

Compound `NNC(=O)c1ccncc1` [ISONIAZID] gave a minimal inhibitory concentration (MIC) of 0.729 µM (≈ 0.1 µg/mL).

`O=[N+]([O-])c1ccc(-c2csc(N/N=C/c3c(-c4ccc(Cl)cc4)nc4sc(C(F)(F)F)nn34)n2)cc1` registered a minimum inhibitory concentration (MIC) of 91.1 µM (≈ 50.1 µg/mL).

As to `COc1ccc(-c2nc3sc(C)nn3c2/C=N/Nc2nc(-c3ccc(Cl)cc3)cs2)cc1`, the minimum inhibitory concentration (MIC) was found to be 26 µM (≈ 12.5 µg/mL).

With `COc1ccc(-c2nc3sc(C)nn3c2/C=N/Nc2nc(-c3ccc(C)cc3)cs2)cc1`, the lowest concentration to inhibit growth (MIC) was 109 µM (≈ 50 µg/mL).

`Cc1ccc(-c2nc3sc(C)nn3c2/C=N/Nc2nc(-c3ccc(Cl)cc3)cs2)cc1` displayed an MIC of 53.9 µM (≈ 25 µg/mL).

Compound `Cc1ccc(-c2csc(N/N=C/c3c(-c4ccc(Cl)cc4)nc4sc(C)nn34)n2)cc1` registered an MIC of 108 µM (≈ 50.1 µg/mL).

Turning to `Cc1ccc(-c2csc(N/N=C/c3c(-c4ccc(Cl)cc4)nc4sc(C(F)(F)F)nn34)n2)cc1`, inhibition of growth (MIC) required 6.03 µM (≈ 3.13 µg/mL).

Consider `COc1ccc(-c2nc3sc(C(F)(F)F)nn3c2/C=N/Nc2nc(-c3ccc(F)cc3)cs2)cc1`, for which inhibition of growth (MIC) required 24.1 µM (≈ 12.5 µg/mL).

With `COc1ccc(-c2csc(N/N=C/c3c(-c4ccc(Cl)cc4)nc4sc(C(F)(F)F)nn34)n2)cc1`, the MIC is 11.7 µM (≈ 6.26 µg/mL).

Take `COc1ccc(-c2nc3sc(C)nn3c2/C=N/Nc2nc(-c3ccc(F)cc3)cs2)cc1`: the minimal inhibitory concentration (MIC) is 108 µM (≈ 50 µg/mL).

With `COc1ccc(-c2csc(N/N=C/c3c(-c4ccc(OC)cc4)nc4sc(C)nn34)n2)cc1`, the minimal inhibitory concentration (MIC) was 105 µM (≈ 50 µg/mL).

`COc1ccc(-c2nc3sc(C(F)(F)F)nn3c2/C=N/Nc2nc(-c3ccc(Cl)cc3)cs2)cc1` registered a minimum inhibitory concentration (MIC) of 93.6 µM (≈ 50.1 µg/mL).

`O=C(O)c1cn(C2CC2)c2cc(N3CCNCC3)c(F)cc2c1=O` [CIPROFLOXACIN] displayed a minimum inhibitory concentration (MIC) of 9.44 µM (≈ 3.13 µg/mL).

With `Cc1nn2c(/C=N/Nc3nc(-c4ccc(F)cc4)cs3)c(-c3ccc(Cl)cc3)nc2s1`, the minimal inhibitory concentration (MIC) is 53.9 µM (≈ 25.3 µg/mL).
